Experimental findings from US10724000B2, “Small molecule based conversion of somatic cells into neural crest cells” (Hoffmann-La Roche Inc., priority 2013, dated 2020) are described below.

Test [1] deals with SCC058 foreskin fibroblasts. The test can be described thus: Sphere formation assay of fibroblasts in suspension culture. It is filed as cell-based, human. Particulars: day 3, FIG. 1B, 1D. The method, then: SCC058 foreskin fibroblasts (Millipore) were cultured at 37° C. and 5% CO2 in low serum FibroGro (Millipore). For conversion, 7300 cells/cm^2 were seeded in fibroblast medium containing 1 mM Valproic acid (VPA, Sigma). Then, cells were treated for two days with 1 mM VPA, and 6 μg/ml polybrene (Millipore) and subsequently transferred to low attachment plates in NSC medium for sphere formation. NSC medium consisted of NeuroCult NS-A proliferation medium (StemCell Technologies) supplemented with Penicillin/streptomycin, bFGF (20 ng/ml), EGF (20 ng/ml), BDNF (20 ng/ml), Heparin (2 μg/ml), D114 (500 ng/ml), Jagged1 (500 ng/ml), SHH (500 ng/ml, peprotech), Ascorbic Acid (0.2 mM, Sigma), FGF8a (100 ng/ml), 10% NSC-CM (medium conditioned by ESC-NSCs), and Compound B (2 μM, Roche).
• [3R,4R]-N-{4-[4-(2-Fluoro-6-hydroxy-3-methoxy-benzoyl)-benzoyl amino]-azep+an-3-yl}-4-hydroxy-3,5-dimethyl-benzamide hydrochlorid All growth factors were from R&D systems if not indicated otherwise. To compare effects of other inhibitors, Compound B was replaced by 2 μM Dorsomorphin, 10 uM H89 (Tocris), 10 μM Y27632, or 10 μM GSK650394 (Tocris), respectively. After four days, spheres were dissociated with Accutase and single cells were seeded in low attachment plates in NSC medium supplemented with inhibitor mix comprising 500 ng/ml Noggin (peprotech), 10 μM SB431452 (Tocris), and 1 μM CP21 (Roche).

The test system of a further test is mesenchymal stem cells. Kind of test: Mesenchymal stem cell proliferation. The test is classed as cell-based. Particulars: FIG. 1A.
The next test relates to ESC-NSCs. Kind of test: Neural stem cell proliferation, ATP assay (CellTiterGlo). It is filed as cell-based, human. Particulars: ATP assay after four days, FIG. 1A. The method, then:
Embryonic stem cell-derived neural stem cells (ESC-NSCs) were generated as previously described using dual SMAD inhibition protocol (Chambers et al., 2009). NSCs were cultured on POL coated plates at 37° C., 5% CO2 in N2B27 supplemented with bFGF (10 ng/ml), EGF (10 ng/ml), BDNF (20 ng/ml). For Compound B identification, NSCs were seeded on POL coated plates at 21000 cells/cm^2 in N2B27. After cell attachment (4 h), compounds were added at indicated concentrations. Negative control cells were treated with DMSO. Cells were incubated for four days and subsequently the amount of ATP was determined using the CellTiterGlo® kit (Promega) according to the manufacturer's instructions.

The subject of test [2] is fibroblast-derived secondary spheres. Kind of test: Attachment of secondary spheres to laminin substrate (POL). The test is classed as cell-based, human. Particulars: two hours after plating on POL; FIG. 6. The method, then: • [3R,4R]-N-{4-[4-(2-Fluoro-6-hydroxy-3-methoxy-benzoyl)-benzoyl amino]-azep+an-3-yl}-4-hydroxy-3,5-dimethyl-benzamide hydrochlorid All growth factors were from R&D systems if not indicated otherwise. To compare effects of other inhibitors, Compound B was replaced by 2 μM Dorsomorphin, 10 uM H89 (Tocris), 10 μM Y27632, or 10 μM GSK650394 (Tocris), respectively. After four days, spheres were dissociated with Accutase and single cells were seeded in low attachment plates in NSC medium supplemented with inhibitor mix comprising 500 ng/ml Noggin (peprotech), 10 μM SB431452 (Tocris), and 1 μM CP21 (Roche). After 3 days, secondary spheres were seeded on polyornithine-laminin (POL) coated dishes. After attachment (24 hours), medium was replaced with differentiation medium comprising N2B27 (1:1 DMEM/F12 and Neurobasal with beta-mercaptoethanol (50 μM), B27 supplement without vitamin A (1:50, Invitrogen), and N2 supplement (1:100, Invitrogen)) supplemented with antibiotics, BDNF (20 ng/ml), GDNF (20 ng/ml), Laminin ([…]), Ascorbic Acid (0.2 mM) and dibutyryl-cAMP (0.5 mM, Sigma). Every other day, 50% of medium was exchanged. For the first seven days of differentiation, medium was supplemented with the inhibitor mix.

The target in a further test is T1, PKA (Homo sapiens, UniProt P17612).
T1 construct: purchased Caliper (PerkinElmer) ProfilerPro Kinase Kits
Kind of test: Kinase selectivity profiling (ProfilerPro Kinase Kits). The test is classed as biochemical. Particulars: FIG. 1C. As for the experimental part: (§1) Kinase Selectivity Profiling Kinase selectivity profiling was performed using ProfilerPro Kinase Kits from Caliper (PerkinElmer) according to the manufacturer's instructions.

The next test addresses T2, PKGa (Homo sapiens, UniProt Q13976).
T2 construct: purchased Caliper (PerkinElmer) ProfilerPro Kinase Kits
T2 sequence (Q13976 1-671): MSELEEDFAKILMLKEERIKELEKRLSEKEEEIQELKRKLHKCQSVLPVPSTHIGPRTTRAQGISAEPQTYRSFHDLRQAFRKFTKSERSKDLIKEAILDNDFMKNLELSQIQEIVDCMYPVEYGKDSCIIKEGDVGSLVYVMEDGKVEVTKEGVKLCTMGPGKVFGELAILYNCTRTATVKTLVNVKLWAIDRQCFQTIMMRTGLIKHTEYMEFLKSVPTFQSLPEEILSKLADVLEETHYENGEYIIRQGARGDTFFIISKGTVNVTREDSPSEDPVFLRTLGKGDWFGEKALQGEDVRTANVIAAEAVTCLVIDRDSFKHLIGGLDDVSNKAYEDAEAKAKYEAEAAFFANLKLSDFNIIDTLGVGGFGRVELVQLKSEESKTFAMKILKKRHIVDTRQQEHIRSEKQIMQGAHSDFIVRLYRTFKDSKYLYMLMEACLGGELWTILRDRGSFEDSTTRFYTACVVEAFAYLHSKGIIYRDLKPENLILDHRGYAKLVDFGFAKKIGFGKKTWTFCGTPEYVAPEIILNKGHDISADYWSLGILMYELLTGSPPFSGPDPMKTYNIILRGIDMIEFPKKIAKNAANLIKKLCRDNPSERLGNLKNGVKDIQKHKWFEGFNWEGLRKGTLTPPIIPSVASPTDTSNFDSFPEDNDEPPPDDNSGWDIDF
Described as above. It is filed as biochemical. Particulars: FIG. 1C. As for the experimental part:
as §1

The next test relates to AMPK. The test is described as above. It is filed as biochemical. Particulars: FIG. 1C. As for the experimental part:
as §1

The target in another test is T3, ROCK2 (Homo sapiens, UniProt O75116).
T3 construct: purchased Caliper (PerkinElmer) ProfilerPro Kinase Kits
T3 sequence (O75116 whole entry, species assumed): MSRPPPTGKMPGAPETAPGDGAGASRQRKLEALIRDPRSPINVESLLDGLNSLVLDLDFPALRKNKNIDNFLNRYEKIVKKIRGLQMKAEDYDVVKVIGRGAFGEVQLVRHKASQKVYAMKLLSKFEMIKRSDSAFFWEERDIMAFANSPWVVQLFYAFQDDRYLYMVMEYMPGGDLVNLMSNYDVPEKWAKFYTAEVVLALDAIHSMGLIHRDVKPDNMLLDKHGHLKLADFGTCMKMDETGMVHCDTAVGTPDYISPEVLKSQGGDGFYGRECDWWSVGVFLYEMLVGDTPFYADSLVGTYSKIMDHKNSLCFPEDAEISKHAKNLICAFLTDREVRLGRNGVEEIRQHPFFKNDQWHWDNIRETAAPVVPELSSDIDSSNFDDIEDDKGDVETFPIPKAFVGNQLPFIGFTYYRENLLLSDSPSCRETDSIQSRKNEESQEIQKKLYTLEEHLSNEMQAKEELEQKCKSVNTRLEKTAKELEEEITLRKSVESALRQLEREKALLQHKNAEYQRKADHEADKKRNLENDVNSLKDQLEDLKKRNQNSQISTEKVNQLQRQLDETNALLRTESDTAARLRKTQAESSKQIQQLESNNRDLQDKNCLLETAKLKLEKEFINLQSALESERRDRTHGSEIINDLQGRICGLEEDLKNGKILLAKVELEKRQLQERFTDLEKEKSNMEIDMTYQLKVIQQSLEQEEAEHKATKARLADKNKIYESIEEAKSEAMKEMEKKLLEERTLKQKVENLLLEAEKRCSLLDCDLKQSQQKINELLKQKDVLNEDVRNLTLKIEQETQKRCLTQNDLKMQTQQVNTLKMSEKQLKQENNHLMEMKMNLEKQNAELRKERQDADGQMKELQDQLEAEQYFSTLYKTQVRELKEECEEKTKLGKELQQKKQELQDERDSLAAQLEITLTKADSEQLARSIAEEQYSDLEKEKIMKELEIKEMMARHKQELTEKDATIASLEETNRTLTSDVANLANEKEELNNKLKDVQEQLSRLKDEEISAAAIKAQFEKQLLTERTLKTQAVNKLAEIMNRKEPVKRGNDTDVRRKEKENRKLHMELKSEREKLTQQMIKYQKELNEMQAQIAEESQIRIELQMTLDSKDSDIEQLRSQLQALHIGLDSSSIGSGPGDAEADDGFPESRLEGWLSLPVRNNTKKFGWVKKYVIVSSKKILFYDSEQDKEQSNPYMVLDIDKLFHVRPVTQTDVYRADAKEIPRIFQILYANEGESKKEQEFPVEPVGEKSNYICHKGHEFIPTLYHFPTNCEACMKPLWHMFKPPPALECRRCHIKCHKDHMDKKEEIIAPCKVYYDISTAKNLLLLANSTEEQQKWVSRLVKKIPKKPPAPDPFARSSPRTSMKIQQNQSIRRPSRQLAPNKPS
Described as above. It is filed as biochemical. Particulars: FIG. 1C. The method, then: as §1

A further test has as its target T4, SGK1 (Homo sapiens, UniProt O00141).
T4 construct: purchased Caliper (PerkinElmer) ProfilerPro Kinase Kits
T4 sequence (O00141 1-431): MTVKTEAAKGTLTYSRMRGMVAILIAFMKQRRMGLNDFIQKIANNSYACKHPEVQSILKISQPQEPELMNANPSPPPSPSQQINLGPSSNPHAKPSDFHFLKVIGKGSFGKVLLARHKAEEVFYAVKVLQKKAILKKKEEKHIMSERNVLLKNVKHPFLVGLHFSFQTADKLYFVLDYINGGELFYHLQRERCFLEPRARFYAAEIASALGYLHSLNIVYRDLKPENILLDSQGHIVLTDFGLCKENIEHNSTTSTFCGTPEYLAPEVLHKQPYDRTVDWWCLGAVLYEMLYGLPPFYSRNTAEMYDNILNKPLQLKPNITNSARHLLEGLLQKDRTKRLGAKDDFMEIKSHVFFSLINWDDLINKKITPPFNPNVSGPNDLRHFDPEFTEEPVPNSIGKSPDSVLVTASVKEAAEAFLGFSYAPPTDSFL
Described as above. It is filed as biochemical. Particulars: FIG. 1C. As for the experimental part:
as §1

The target of a further test is T5, MSK1 (Homo sapiens, UniProt O75582).
T5 construct: purchased Caliper (PerkinElmer) ProfilerPro Kinase Kits
T5 sequence (O75582 whole entry, species assumed): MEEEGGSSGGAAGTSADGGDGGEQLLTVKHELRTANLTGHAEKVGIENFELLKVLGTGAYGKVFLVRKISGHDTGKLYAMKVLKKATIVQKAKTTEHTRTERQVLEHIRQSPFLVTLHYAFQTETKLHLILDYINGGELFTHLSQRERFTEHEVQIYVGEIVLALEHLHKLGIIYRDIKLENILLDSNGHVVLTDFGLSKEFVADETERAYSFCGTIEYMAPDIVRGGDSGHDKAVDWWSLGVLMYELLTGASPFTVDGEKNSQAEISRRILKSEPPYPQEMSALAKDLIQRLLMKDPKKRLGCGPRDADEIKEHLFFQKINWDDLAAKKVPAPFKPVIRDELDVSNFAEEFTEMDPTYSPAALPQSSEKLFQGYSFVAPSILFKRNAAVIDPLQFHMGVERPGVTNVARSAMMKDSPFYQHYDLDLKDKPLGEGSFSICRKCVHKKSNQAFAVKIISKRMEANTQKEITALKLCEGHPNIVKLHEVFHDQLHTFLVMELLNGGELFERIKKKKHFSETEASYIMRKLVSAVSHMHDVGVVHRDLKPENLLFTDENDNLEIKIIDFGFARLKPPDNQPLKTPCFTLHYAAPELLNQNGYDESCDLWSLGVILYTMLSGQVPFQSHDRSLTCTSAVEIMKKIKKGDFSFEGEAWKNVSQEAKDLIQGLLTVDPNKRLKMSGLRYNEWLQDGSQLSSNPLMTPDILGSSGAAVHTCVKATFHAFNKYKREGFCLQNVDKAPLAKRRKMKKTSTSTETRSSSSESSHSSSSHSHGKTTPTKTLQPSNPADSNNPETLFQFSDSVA
Described as above. It is filed as biochemical. Particulars: FIG. 1C. The method, then: as §1

Turning to `C[C@@H](N)[C@H]1CC[C@H](C(=O)Nc2ccncc2)CC1` [Compound Y27142, reference compound], the sphere size result in [1] is “increase in sphere size, albeit not at the same extent as Compound B”.

`COc1ccc(O)c(C(=O)c2ccc(C(=O)N[C@@H]3CCCNC[C@H]3NC(=O)c3cc(C)c(O)c(C)c3)cc2)c1F.Cl` [Compound B, N-{(3R,4R)-4-[4-(2-Fluoro-6-hydroxy-3-methoxy-benzoyl)-benzoylamino]-azepan-3-yl}-4-hydroxy-3,5-dimethyl-benzamide]: in the test on mesenchymal stem cells, the “effect on mesenchymal stem cells (proliferation)” value is “no effect”. In addition, the “proliferation of neural stem cells” value in the test with ESC-NSCs is listed as “promoted proliferation of ESC-NSCs in a dose-dependent manner”. In addition, the “attachment and migration of spheres on laminin substrate” value in [2] was “have attached and started to migrate”. For the same molecule, in [1], the sphere size result is “significant increase” and the “total cell number in suspension culture” value is on record as “significant increase”. At PKA, the “inhibition of PKA” value is “over 80%”. Moreover, the “inhibition of PKGa” value against PKGa is on record as “over 80%”. Besides, the “inhibition of AMPK” value in the test on AMPK is “over 80%”. Also, at ROCK2, the “inhibition of ROCK2” value is on record as “over 80%”. Moreover, the “inhibition of SGK1” value against SGK1 was “over 80%”. The “inhibition of MSK1” value at MSK1 is reported as “over 80%”.

On to `O=S(=O)(NCCNC/C=C/c1ccc(Br)cc1)c1cccc2cnccc12` [Compound H89, reference compound], for which the sphere size entry in [1] was “increase in sphere size, albeit not at the same extent as Compound B”.
